This is an account of results in PubChem BioAssay (NCI).

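Tested at 5 concentrations; 48 h exposure; 96-well plates; endpoints linearly interpolated, else capped at highest concentration. GI50: concentration for 50% inhibition of growth. At the TGI there is no net growth.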

Among the test systems are PC-3 prostate; A549 NSCLC; SF-295 CNS; BT-549 breast; IGROV1 ovarian; DU-145 prostate; SNB-75 CNS; RPMI-8226 leukemia; LOX IMVI melanoma; HT29 colon.
Experiment in all cases: DTP human tumour cell line panel, 48 h

A word on the GI50: it is the concentration giving 50% growth inhibition. In general, TGI refers to the concentration giving total growth inhibition. Lower therefore signals more potent growth arrest. Consider `COc1ccc(-c2nn3ncccc3c2-c2ccnc(Nc3ccc(F)c(F)c3)n2)cc1`, for which the GI50 was 8.7 µM with PC-3 prostate; 7.52 µM with A549 NSCLC; 4.26 µM in the experiment on SF-295 CNS; 15 µM in the experiment with BT-549 breast; 8.47 µM in the experiment on IGROV1 ovarian; 15.8 µM with DU-145 prostate. The GI50 is 8.49 µM in the experiment on SNB-75 CNS, 14.7 µM with RPMI-8226 leukemia, 7.42 µM with LOX IMVI melanoma and 5.43 µM in the experiment on HT29 colon. Moreover, the TGI in the experiment with PC-3 prostate is more than 25 µM; in the experiment on A549 NSCLC it was more than 25 µM; in the experiment with SF-295 CNS it was more than 25 µM; with BT-549 breast, more than 25 µM; in the experiment with IGROV1 ovarian, 24.5 µM; in the experiment on DU-145 prostate, more than 25 µM. Moreover, the TGI in the experiment with SNB-75 CNS, in the experiment on RPMI-8226 leukemia, with LOX IMVI melanoma and in the experiment with HT29 colon was more than 25 µM in each case.
Take `O=C(O)c1c2c(c(O)c3c1CN(C1CCCCC1)CO3)OCN(C1CCCCC1)C2`: the TGI with PC-3 prostate, in the experiment with A549 NSCLC, in the experiment with SF-295 CNS, with BT-549 breast, in the experiment on IGROV1 ovarian and with DU-145 prostate was more than 100 µM in each case. For the same compound, the TGI with SNB-75 CNS is more than 100 µM; with RPMI-8226 leukemia, more than 100 µM; in the experiment on LOX IMVI melanoma, 39.7 µM; with HT29 colon, more than 100 µM.
On to `C=C(C)[C@@H]1CC[C@]2(C(=O)OC)CC[C@]3(C)[C@H](CC[C@@H]4[C@@](C)(CCc5nn[nH]n5)[C@H](C(=C)C)CC[C@]43C)[C@@H]12`, for which the GI50 in the experiment with PC-3 prostate is 3.46 µM; with A549 NSCLC, 12.4 µM; with SF-295 CNS, 13.6 µM; in the experiment with BT-549 breast, 33.2 µM; in the experiment with IGROV1 ovarian, 17.4 µM; in the experiment on DU-145 prostate, 16 µM. The GI50 was 15.9 µM in the experiment on SNB-75 CNS, 4.07 µM in the experiment with RPMI-8226 leukemia, 16 µM with LOX IMVI melanoma and 20.6 µM with HT29 colon. The TGI was 17.2 µM in the experiment on PC-3 prostate; 34.9 µM with A549 NSCLC; 44.3 µM in the experiment on SF-295 CNS; more than 100 µM with BT-549 breast; 46.2 µM in the experiment with IGROV1 ovarian; 32.4 µM with DU-145 prostate. Besides, the concentration for total growth inhibition (TGI) with SNB-75 CNS came to 34.1 µM; with RPMI-8226 leukemia, 29.8 µM; in the experiment on LOX IMVI melanoma it was 29.5 µM; in the experiment on HT29 colon, 73.3 µM.
On to `Cc1cc(NC(=O)NCCCOc2ccc(N3C(N)=NC(N)=NC3(C)C)cc2Cl)ccc1S(=O)(=O)F`, for which the GI50 was 0.376 µM in the experiment with PC-3 prostate; 0.412 µM in the experiment on A549 NSCLC; 3.26 µM with SF-295 CNS; 4.85 µM in the experiment with BT-549 breast; 0.332 µM in the experiment with IGROV1 ovarian; 0.786 µM in the experiment on DU-145 prostate. The GI50 in the experiment on SNB-75 CNS is 1.2 µM; in the experiment with RPMI-8226 leukemia, 5.78 µM; in the experiment with LOX IMVI melanoma it was 0.479 µM; in the experiment with HT29 colon, 0.333 µM. Further, the TGI in the experiment on PC-3 prostate is 44 µM; with A549 NSCLC, more than 100 µM; in the experiment with SF-295 CNS it was more than 100 µM; in the experiment on BT-549 breast, 21.7 µM; in the experiment with IGROV1 ovarian it was more than 68.8 µM; with DU-145 prostate it was more than 62.4 µM. The concentration for total growth inhibition (TGI) was 24.4 µM in the experiment with SNB-75 CNS, more than 100 µM in the experiment on RPMI-8226 leukemia, more than 100 µM with LOX IMVI melanoma and 53.9 µM in the experiment with HT29 colon.
Consider `CC(C)(C)CNCCO`, for which the total growth inhibition concentration (TGI) in the experiment with PC-3 prostate, in the experiment on A549 NSCLC, in the experiment on SF-295 CNS, with BT-549 breast, in the experiment with IGROV1 ovarian and with DU-145 prostate was more than 100 µM each time. In addition, the TGI in the experiment with SNB-75 CNS, with RPMI-8226 leukemia, in the experiment on LOX IMVI melanoma and with HT29 colon was more than 100 µM throughout.
Consider `COCCn1c(Nc2ccc(C(=O)NO)cc2)nc2ccccc21`, for which the GI50 was 8.78 µM in the experiment with PC-3 prostate; 4.9 µM with A549 NSCLC; 2.93 µM in the experiment on SF-295 CNS; 15.2 µM with BT-549 breast; 2.39 µM in the experiment with IGROV1 ovarian; 2.91 µM in the experiment with DU-145 prostate. For the same compound, the GI50 with SNB-75 CNS was 2.62 µM; in the experiment on RPMI-8226 leukemia it was 3.7 µM; in the experiment with LOX IMVI melanoma it was 5.9 µM; in the experiment on HT29 colon, 2.97 µM. The TGI in the experiment with PC-3 prostate was more than 100 µM; in the experiment on A549 NSCLC it was 23 µM; in the experiment with SF-295 CNS it was 16.3 µM; with BT-549 breast, 67.9 µM; with IGROV1 ovarian it was 15.2 µM; with DU-145 prostate it was 14.7 µM. Further, the TGI with SNB-75 CNS was 19.1 µM; with RPMI-8226 leukemia, more than 100 µM; in the experiment on LOX IMVI melanoma it was 19 µM; in the experiment with HT29 colon, more than 100 µM.
On to `Cc1ccc(NC(=O)c2ccoc2)cc1-c1ccc(C(=O)NCC2CC2)cc1`, for which the GI50 in the experiment with PC-3 prostate is more than 17 µM; with A549 NSCLC it was more than 19.5 µM; in the experiment on SF-295 CNS, more than 14.8 µM; with BT-549 breast, more than 19.7 µM; with IGROV1 ovarian, more than 25 µM; with DU-145 prostate, more than 25 µM. Moreover, the GI50 with SNB-75 CNS was more than 25 µM; with RPMI-8226 leukemia, more than 16.2 µM; with LOX IMVI melanoma, more than 25 µM; in the experiment with HT29 colon it was more than 25 µM. Further, the TGI in the experiment with PC-3 prostate, with A549 NSCLC, in the experiment on SF-295 CNS, in the experiment with BT-549 breast, with IGROV1 ovarian and with DU-145 prostate was more than 25 µM in each case. Moreover, the TGI with SNB-75 CNS, in the experiment on RPMI-8226 leukemia, in the experiment with LOX IMVI melanoma and in the experiment with HT29 colon was more than 25 µM each time.
With `C[C@]12CC[C@H]3[C@@H](CCC4=CC(=O)CC[C@@]43C)[C@]1(O)CC[C@]2(O)C(=O)CO`, the TGI with PC-3 prostate, in the experiment with A549 NSCLC, in the experiment on SF-295 CNS, in the experiment with BT-549 breast, in the experiment on IGROV1 ovarian and in the experiment on DU-145 prostate was more than 100 µM each time. For the same compound, the TGI in the experiment with SNB-75 CNS, with RPMI-8226 leukemia, in the experiment with LOX IMVI melanoma and in the experiment on HT29 colon was more than 100 µM each time.
